How the values were obtained:
[1] = 20 clinical studies, more than 5000 patients; cited from earlier work
[2] = Single dose of CBS in a dog with excessive gas after a large meal; format: in vivo; details: single dose of CBS 125 mg
Experimental: (§1) The inventor has specific clinical experience with the use of CBS. Six patients who had episodic both severe flatus passage and gastrointestinal discomfort after the consumption of large quantities of nonabsorbable carbohydrates were treated with CBS obtained from a compounding pharmacy. […] A single dose of CBS 125 mg was administered to a dog with excessive and bothersome gas following a large meal including table food.

[3] = cited from earlier work
[4] = CBS in one patient with symptomatic microscopic colitis; format: in vivo, human; details: CBS 600 mg three times daily for one month
[5] = Inventor's clinical experience: CBS in patients with severe flatus passage and gastrointestinal discomfort after nonabsorbable carbohydrates; format: in vivo, human; details: six patients; CBS 125 mg, 1 or 2 capsules per day or twice a day for one to two days
Experimental: as §1

In the case of CNC(=C[N+](=O)[O-])NCCSCc1ccc(CN(C)C)o1.O=C([O-])CC(O)(CC(=O)[O-])C(=O)[O-].[Bi+3] [ranitidine bismuth citrate], the “side effects compared with ranitidine alone” value [1] is given as “no different than those seen with ranitidine alone”.

For colloidal bismuth subcitrate [CBS], the flatus after administration [2] is given as “Complete session of flatus”, the “safety of use in nonulcer dyspepsia” value ([3]; 480 mg of CBS daily for 8 weeks) is given as “safe use” and the “serum bismuth levels after ingestion” value ([3]; up to 480 mg per day of CBS for more than 4 weeks) is given as “safe serum bismuth levels”. The “symptoms of microscopic colitis” value [4] was “complete resolution of symptoms”, the “acute symptoms of excess of gas passage” value [5] was “completely eliminated all of acute symptoms” and the toxic effects [5] was “No toxic effects were noted”.

From patent US20120053239A1, “TREATMENT FOR INTESTINAL GAS, BLOATING, MICROSCOPIC COLITIS, INFLAMMATORY BOWEL DISEASE AND TRAVELER'S DIARRHEA USING COLLOIDAL BISMUTH SUBCITRATE” (priority 2006, published 2012)
